According to US9289400B2, “D3 dopamine receptor agonists to treat dyskinesia in parkinson's disease” (priority 2010, dated 2016):
pEC50: −log10 of the molar value. Where “and” joins values, the source holds several entries; their conditions need not be identical. Equal entries are not always repeated. Marks after values point to notes of the source that are not given here.

Experiments:
Format in all cases: cell-based
D3 dopamine receptor [1] = target: T1, D3 dopamine receptor (Homo sapiens (Human), UniProt P35462); assay: GIRK channel activation, whole cell voltage clamp, AtT-20 cells stably expressing D3; settings: for specificity of agonist effect (eticlopride pretreatment / parental cells): D2/D3 antagonist eticlopride (100 nM); for GIRK channel activation: agonist type / pEC50: D3; for GIRK channel activation: agonist type: versus full agonist quinpirole; for pEC50: GIRK channel activation EC50, AtT-20 cells
T1 sequence (P35462 other isoform, or with tags, fused parts or gaps): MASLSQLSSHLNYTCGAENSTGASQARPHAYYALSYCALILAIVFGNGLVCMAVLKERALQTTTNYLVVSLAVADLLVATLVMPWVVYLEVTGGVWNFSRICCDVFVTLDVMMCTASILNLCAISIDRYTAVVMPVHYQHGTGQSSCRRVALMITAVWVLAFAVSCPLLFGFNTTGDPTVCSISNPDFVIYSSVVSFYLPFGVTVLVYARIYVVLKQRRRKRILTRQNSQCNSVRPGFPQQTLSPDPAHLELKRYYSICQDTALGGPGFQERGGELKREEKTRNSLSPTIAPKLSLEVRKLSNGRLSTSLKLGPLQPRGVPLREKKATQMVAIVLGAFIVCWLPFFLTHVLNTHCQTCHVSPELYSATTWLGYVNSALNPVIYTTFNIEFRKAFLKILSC
Experimental: The activation of the GIRK channels was measured electrophysiologically using whole cell voltage clamp recording (Kuzhikandathil et al., 2004, Mol. Cell. Neurosci. 26:144-155). […]. The adenylyl cyclase inhibition was determined using a commercially available ELISA assay (Westrich & Kuzhikandathil, 2007, Biochim. Biophys. Acta-Mol. Cell. Res. 1773:1747-1758).
. In the initial screen, the ability of 300 nM lead compound to activate G-protein coupled inward rectifier potassium (GIRK) channels (FIG. 1) is measured using whole cell voltage clamp recording. The protocol has been previously used for performing whole cell voltage clamp and measuring agonist-induced GIRK response. […]. The EC50 values for each receptor subtype is determined by fitting the data points using the Hill equation.
AtT-20 mouse pituitary cells were grown in Ham's F10 medium with 5% FBS, 10% heat-inactivated horse serum, 2 mM glutamine and 50 μg/ml gentamicin (Invitrogen, Carlsbad, Calif.). AtT-20 cells stabling expressing the human D2S, D2L, D3, and D4.2 and receptor were maintained in the above F10 culture media supplemented with 500 μg/ml G418 (Invitrogen). For electrophysiological characterization, cells were plated onto glass coverslips coated with 40 μg/ml poly L-lysine (Sigma-Aldrich). […]. Physiol. 115:697-706; Kuzhikandathil et al., 1998, Mol. Cell. Neurosci. 12:390-402; Kuzhikandathil & Bartoszyk, 2006, Neuropharm. 51:873-884; Westrich & Kuzhikandathil, 2007, Biochim. Biophys. Acta-MCR 1773:1747-1758; Kuzhikandathil et al., 2004, Mol. Cell. Neurosci. 26:144-155; Westrich et al., 2010, Biochem. Pharmacol. 79:897-907).
(§1) Agonist-activated currents were measured by the whole-cell patch clamp technique in voltage clamp and current clamp mode as described previously (Kuzhikandathil & Oxford, 2000, J. Gen. Physiol. 115:697-706; Kuzhikandathil et al., 1998, Mol. Cell. Neurosci. 12:390-402; Kuzhikandathil & Bartoszyk, 2006, Neuropharm. 51:873-884; Westrich & Kuzhikandathil, 2007, Biochim. Biophys. Acta-MCR 1773:1747-1758; Kuzhikandathil et al., 2004, Mol. Cell. Neurosci. 26:144-155; Westrich et al., 2010, Biochem. Pharmacol. 79:897-907). Drug solutions were delivered to cells via a multi-barreled micropipette array. The current responses were normalized to the cell capacitance, to account for variation in cell size.
To compare the functional effects of the new class of D3 receptor agonists, PBZI (Table 2) and ES609 (Table 3) were tested on AtT-20 cells stably expressing human D3, D2S, D2L or D4.2. […]. The EC50 values of PBZI and ES609 for inhibiting adenylyl cyclase and activating GIRK channels were in the range of 0.2 nM to 30 nM for D3 receptors. […]. […]

D2L dopamine receptor = D2L dopamine receptor (Homo sapiens (Human), UniProt P14416); assay: GIRK channel activation, whole cell voltage clamp, AtT-20 cells stably expressing D2L; settings: for GIRK channel activation: agonist type: versus full agonist quinpirole
D2L dopamine receptor, sequence (P14416 whole entry): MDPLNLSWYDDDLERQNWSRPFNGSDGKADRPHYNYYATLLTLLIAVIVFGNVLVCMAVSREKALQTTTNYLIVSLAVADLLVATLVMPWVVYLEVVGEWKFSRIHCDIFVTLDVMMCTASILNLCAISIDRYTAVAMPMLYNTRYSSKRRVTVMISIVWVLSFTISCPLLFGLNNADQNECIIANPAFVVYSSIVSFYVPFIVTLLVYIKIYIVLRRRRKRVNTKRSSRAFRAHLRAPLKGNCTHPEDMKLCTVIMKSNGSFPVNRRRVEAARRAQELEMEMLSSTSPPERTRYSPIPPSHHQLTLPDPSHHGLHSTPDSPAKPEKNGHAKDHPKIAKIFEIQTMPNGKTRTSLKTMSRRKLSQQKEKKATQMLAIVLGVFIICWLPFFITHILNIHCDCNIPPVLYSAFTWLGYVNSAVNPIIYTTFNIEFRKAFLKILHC
Experimental: The activation of the GIRK channels was measured electrophysiologically using whole cell voltage clamp recording (Kuzhikandathil et al., 2004, Mol. Cell. Neurosci. 26:144-155). The GIRK channel responses elicited with new ligands were compared to quinpirole, a classical full agonist of D2, D3 and D4 dopamine receptors. The adenylyl cyclase inhibition was determined using a commercially available ELISA assay (Westrich & Kuzhikandathil, 2007, Biochim. Biophys. Acta-Mol. Cell. Res. 1773:1747-1758).
In the first assay, whole cell voltage clamp recording is used to measure GIRK response to increasing concentrations of the lead compound (0.01 nM to 3,000 nM dose range). The EC50 values for each receptor subtype is determined by fitting the data points using the Hill equation.
(§2) AtT-20 mouse pituitary cells were grown in Ham's F10 medium with 5% FBS, 10% heat-inactivated horse serum, 2 mM glutamine and 50 μg/ml gentamicin (Invitrogen, Carlsbad, Calif.). AtT-20 cells stabling expressing the human D2S, D2L, D3, and D4.2 and receptor were maintained in the above F10 culture media supplemented with 500 μg/ml G418 (Invitrogen). For electrophysiological characterization, cells were plated onto glass coverslips coated with 40 μg/ml poly L-lysine (Sigma-Aldrich). The generation and characterization of the AtT-20 cells stably expressing various human dopamine receptors have been previously reported (Kuzhikandathil & Oxford, 2000, J. Gen. Physiol. 115:697-706; Kuzhikandathil et al., 1998, Mol. Cell. Neurosci. 12:390-402; Kuzhikandathil & Bartoszyk, 2006, Neuropharm. 51:873-884; Westrich & Kuzhikandathil, 2007, Biochim. Biophys. Acta-MCR 1773:1747-1758; Kuzhikandathil et al., 2004, Mol. Cell. Neurosci. 26:144-155; Westrich et al., 2010, Biochem. Pharmacol. 79:897-907).
as §1
(§3) To compare the functional effects of the new class of D3 receptor agonists, PBZI (Table 2) and ES609 (Table 3) were tested on AtT-20 cells stably expressing human D3, D2S, D2L or D4.2. Functional efficacy was determined by assessing the ability of PBZI and ES609 to inhibit adenylyl cyclase or activate GIRK channels coupled to these “D2-like” dopamine receptors. The EC50 values of PBZI and ES609 for inhibiting adenylyl cyclase and activating GIRK channels were in the range of 0.2 nM to 30 nM for D3 receptors.

D3 dopamine receptor [2] = target: T1, D3 dopamine receptor; assay: Adenylyl cyclase inhibition (forskolin-induced cAMP) in AtT-20 cells stably expressing D3; settings: for Adenylyl cyclase inhibition: agonist type: versus full agonist quinpirole
Experimental: (§4) In the second functional assay, the ability of D2-like dopamine receptors to inhibit adenylyl cyclase activity is assessed. The ability of the lead compound to dose-dependently decrease forskolin-induced cAMP levels is measured. The IC50 values for each receptor subtype is determined by fitting the data points using the Hill equation. Previously, the EC50 and IC50 values for dopamine and quinpirole has been determined in these cell lines in both functional assays.
as §2
(§5) Cyclic AMP (cAMP) levels were assessed using the cAMP Biotrak Enzymeimmunoassay (EIA) kit (GE Healthcare, Piscataway, N.J., USA) as described previously (Kuzhikandathil & Bartoszyk, 2006, Neuropharm. 51:873-884). The cAMP levels in each treated sample were assayed in triplicate and the entire experiment repeated three independent times.
as §3

D2S dopamine receptor = D2S dopamine receptor (Homo sapiens (Human), UniProt P14416); assay: Adenylyl cyclase inhibition (forskolin-induced cAMP) in AtT-20 cells stably expressing D2S; settings: for pEC50: AtT-20 cells; for Adenylyl cyclase inhibition: agonist type: versus full agonist quinpirole
D2S dopamine receptor, sequence (P14416 other isoform, or with tags, fused parts or gaps): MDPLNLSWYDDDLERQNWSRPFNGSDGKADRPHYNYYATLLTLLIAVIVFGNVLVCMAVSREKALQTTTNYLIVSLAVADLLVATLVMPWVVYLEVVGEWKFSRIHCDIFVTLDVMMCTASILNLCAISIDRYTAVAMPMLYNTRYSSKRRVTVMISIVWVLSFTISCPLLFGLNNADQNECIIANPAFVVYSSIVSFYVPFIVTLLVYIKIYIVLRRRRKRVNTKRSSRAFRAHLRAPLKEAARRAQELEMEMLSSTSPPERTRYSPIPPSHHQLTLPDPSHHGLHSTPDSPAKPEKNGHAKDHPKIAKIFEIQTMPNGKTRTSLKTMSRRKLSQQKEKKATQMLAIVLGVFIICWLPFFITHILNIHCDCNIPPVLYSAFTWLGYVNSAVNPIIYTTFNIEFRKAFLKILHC
Experimental: as §4, §2, §5, §3

[3] = AtT-20 cells, D3, read-out: Adenylyl cyclase inhibition EC50
[4] = D3 receptors, range over both compounds and both assays, read-out: EC50 for inhibiting adenylyl cyclase and activating GIRK channels

Compound | specificity of agonist effect (eticlopride pretreatment / parental cells) (D3 dopamine receptor [1]) | GIRK channel activation: agonist type (D3 dopamine receptor [1]) | pEC50 (D3 dopamine receptor [1]) | GIRK channel activation: agonist type (D2L dopamine receptor) | pEC50 (D3 dopamine receptor [2]; [3]) | Adenylyl cyclase inhibition: agonist type (D3 dopamine receptor [2]; D3) | pEC50 (D3 dopamine receptor [2]; [4]) | pEC50 (D2S dopamine receptor) | Adenylyl cyclase inhibition: agonist type (D2S dopamine receptor) | also measured
CC(N)CCc1ccccc1Cl (stereo not drawn) [ES609] | blocked by pretreatment with the antagonist, eticlopride | full agonist | 7.52 | partial agonist | 9.82 | full agonists | 7.52 to 9.70 | 8.62 | partial agonists | GIRK channel activation Ratio of ES609 to quinpirole response (at 300 nM) (D3 dopamine receptor [1]; D3, 300 nM): 0.86; GIRK channel activation: agonist type (D3 dopamine receptor [1]; listed as ES0609): Full; GIRK channel activation Ratio of ES609 to quinpirole response (at 300 nM) (D2L dopamine receptor; 300 nM): 0.32*; GIRK channel activation: agonist type (D2L dopamine receptor; listed as ES0609): Partial; Adenylyl cyclase inhibition Ratio of ES609 to quinpirole response (at 300 nM) (D3 dopamine receptor [2]; D3, 300 nM): 0.71; Adenylyl cyclase inhibition: agonist type (D3 dopamine receptor [2]; D3, listed as ES0609): Full; Adenylyl cyclase inhibition Ratio of ES609 to quinpirole response (at 300 nM) (D2S dopamine receptor; 300 nM): 0.29*; Adenylyl cyclase inhibition: agonist type (D2S dopamine receptor; listed as ES0609): Partial
CCCN1CC[C@@H]2c3cc(O)ccc3CC[C@@H]21 [PBZI, (3aS,9bR)-3-propyl-1,2,3a,4,5,9b-hexahydrobenzo[e]indol-8-ol] | specific for D3 receptors | full agonists and full | 7.52 and 7.54 | full agonist | 7.46 | full agonists and full | 7.52 to 9.70 | 6.85 and < 6.82 | partial agonists | GIRK channel activation Ratio of PBZI to quinpirole response (at 300 nM) (D3 dopamine receptor [1]; D3, 300 nM): 1.3; GIRK channel activation Ratio of PBZI to quinpirole response (at 300 nM) (D2L dopamine receptor; 300 nM): 0.75; Adenylyl cyclase inhibition Ratio of PBZI to quinpirole response (at 300 nM) (D3 dopamine receptor [2]; D3, 300 nM): 0.97; Adenylyl cyclase inhibition Ratio of PBZI to quinpirole response (at 300 nM) (D2S dopamine receptor; 300 nM): 0.29*
